This note sets out measurements from ChEMBL document CHEMBL3507680, “University of Dundee, Gates Library screen for HepG2 cell viability”.

Structures are written as SMILES.

The data set in a line: Human HepG2 cell viability assay in 384 well format. The class given is toxicity, cell-based. Set-up: dose 125 nL, time 70.5 hour; concentration not given beside the values. As to conditions: HepG2 cells, read-out: Inhibition.
Regarding `CC(=O)c1ccc(Cl)c(Cl)c1OCC(=O)NC(C)C`, the cytotoxicity at 70.5 h was -6.15%.
For the compound `O=C(Nc1cccnc1)[C@@H]1COC[C@H]2CN(C3CCCC3)C[C@H]21`, the cytotoxicity at 70.5 h is -124%.
With `CCOCC(O)CN1CCN(C(=O)Cc2ccc3c(c2)CCO3)CC1` (stereo not drawn) the figure was 0.715%.
Turning to `CC(C)(C)Oc1ccccc1CNC(=O)C1CCCOC1` (stereo not drawn), the cytotoxicity at 70.5 h is -0.0152%.
Consider `Cc1noc([C@@H]2C[C@H](NC(=O)NC3CCCCC3)CN2C)n1`, for which the cytotoxicity at 70.5 h was -7.54%.
As for `CC(Cn1cccn1)NC(=O)Nc1cccnc1` (stereo not drawn), the cytotoxicity at 70.5 h is -8.71%.
In the case of `Cc1occc1C(=O)N(CCN(C)C)Cc1ccccn1`, the cytotoxicity at 70.5 h worked out at 15.9%.
For the compound `Cc1nsc(NC(=O)N2CCc3sccc3C2)n1`, the cytotoxicity at 70.5 h was -7.28%.
To `O=C(c1cc[nH]n1)N1CCCC(c2cc(C(F)(F)F)[nH]n2)C1` (stereo not drawn) belongs -17.8%; to `Cn1ccnc1CN1C[C@H]2CN(S(=O)(=O)c3ccccc3)CCN2C1=O`, -2.62%; to `CN(Cc1nc(-c2ccco2)no1)C1CCCN(c2cccnn2)C1` (stereo not drawn), -14.4%.
As to `CN(CCc1ccncc1)C1CCCN(Cc2noc(C3CC3)n2)C1` (stereo not drawn), the cytotoxicity at 70.5 h was -2.71%.
For `CCc1nc(C2CCCN2C(=O)CCNS(C)(=O)=O)no1` (stereo not drawn), the cytotoxicity at 70.5 h came out at 0.333%.
Turning to `CCNc1ccnc(NCc2cn3nc(C)sc3n2)n1`, the cytotoxicity at 70.5 h is -15.7%.
For the compound `Cc1ccc(-c2nc(CNC(C)Cn3cccn3)cs2)o1` (stereo not drawn), the cytotoxicity at 70.5 h was -3.26%.
With `O=C(c1csc(-c2ccco2)n1)N1CCOc2ncccc21`, the cytotoxicity at 70.5 h was determined as 0.101%.
Turning to `CCc1cc2c(N3CCCC(c4ccn[nH]4)C3)ncnc2s1` (stereo not drawn), the cytotoxicity at 70.5 h was determined as 2.73%.
Regarding `c1csc(CN2CCc3nc(N4CCOCC4)nc(NC4CC4)c3C2)n1`, the cytotoxicity at 70.5 h was 17%.
Consider `Cc1ccccc1C(C#N)NC(=O)c1cccc2c1OCCO2` (stereo not drawn), for which the cytotoxicity at 70.5 h amounted to 11%.
For `CNC(=O)[C@@]12CCC3(CCN(S(C)(=O)=O)CC3)[C@@H]1CN(S(C)(=O)=O)C2`, the cytotoxicity at 70.5 h was determined as 1.46%.
As to `Cc1ccc(CN(C)C(=O)c2cc(Cn3ccnc3C(C)C)[nH]n2)o1`, the cytotoxicity at 70.5 h was 3.51%.
For `Cc1oc(NC(=O)C(C)N2CCN(C(C)(C)CO)CC2)c(C#N)c1C` (stereo not drawn), the cytotoxicity at 70.5 h was -4.43%.
Turning to `CCCn1cc(C(=O)NCCc2ccc3c(c2)OCO3)c(C)n1`, the cytotoxicity at 70.5 h was -4.51%.
Regarding `CCN1CCC2(CC1)CN(CCO)c1ccccc12`, the cytotoxicity at 70.5 h worked out at 21.2%.
Consider `COCCCOc1ccc(C(=O)N(Cc2cnn(C)c2)C(C)C)cn1`, for which the cytotoxicity at 70.5 h was -7.46%.
For `CCn1ccnc1CN(C)C(C(=O)O)c1ccc(C(C)(C)C#N)cc1` (stereo not drawn), the cytotoxicity at 70.5 h is -4.97%.
As for `Cn1cc(CNC2CCS(=O)(=O)C2)c(-c2cc3ccccc3o2)n1` (stereo not drawn), the cytotoxicity at 70.5 h turned out to be 5.22%.
Turning to `COc1ccc(NC(=O)NCc2ccnc(N(C)C)c2)cn1`, the cytotoxicity at 70.5 h came out at 14.3%.
With `c1csc(-c2nc(CN3CCN(c4cnccn4)CC3)co2)c1`, the cytotoxicity at 70.5 h is -18.4%.
For `CCN1C[C@@H]2CN(C(=O)c3ccsc3)C[C@@H]2C1=O`, the cytotoxicity at 70.5 h is -0.46%.
As to `Cc1csc(N2CCN(C(=O)C3(C#N)CCCC3)CC2)n1`, the cytotoxicity at 70.5 h was -5.35%.
To `O[C@H]1CCN(Cc2ccoc2)[C@H]1Cc1cccnc1` belongs 30.5%.
To `Cc1cccc(C(=O)N2CCCCC2c2ccc(CN(C)C)cc2)c1` (stereo not drawn) belongs -8.71%; to `CCc1nc(CC(=O)N2CCn3c(CC)nnc3C2)cs1`, -2.3%.
Regarding `COC[C@@H]1CCC[C@@]12CN(C(=O)C1CCOCC1)CCO2`, the cytotoxicity at 70.5 h is -7.08%.
For `CC(C)c1cc(C(=O)N(C)Cc2cccc3ncccc23)n(C)n1`, the cytotoxicity at 70.5 h was -3.18%.
Regarding `CCCS(=O)(=O)N1CCC(c2ccc(OC)cc2)CC1`, the cytotoxicity at 70.5 h is -5.25%.
On to `Cc1ccc(OC[C@@H]2CNC[C@H](C(=O)NCC3CCCO3)C2)cn1` (stereo partly drawn), for which the cytotoxicity at 70.5 h was -1.9%.
As for `COCCNC(=O)c1cc(C)nc(C2CCN(C)CC2)n1`, the cytotoxicity at 70.5 h is -3.41%.
In the case of `CO[C@H]1CCN(S(=O)(=O)c2cccs2)[C@H]1Cc1ccncc1`, the cytotoxicity at 70.5 h was -6.14%.
As for `Cc1cccc(CN2CCc3c(COCC(=O)N(C)C)nn(C)c3C2)n1`, the cytotoxicity at 70.5 h was 0.676%.
Take `Cn1cc(CCNCc2cc(Br)c3c(c2)OCO3)cn1`: the cytotoxicity at 70.5 h came out at 23.7%.
For the compound `CC(C)c1nc(C2CCCN(C(=O)c3ccc4[nH]cnc4c3)C2)no1` (stereo not drawn), the cytotoxicity at 70.5 h was -18.2%.
On to `CS(=O)(=O)N1CCC2(CC1)CC(CC(=O)N1CCCC1)c1ccccc12` (stereo not drawn), for which the cytotoxicity at 70.5 h is -10.4%.
With `Cc1cc(CNC(=O)CCN2CCN(c3ccccn3)CC2)c(C)o1` the figure was 9.41%; with `Cc1cc(C(=O)N2CC[C@H]3C[C@H](c4ccncn4)O[C@@H]3C2)c(C)[nH]1`, -4.78%; with `COCCNC(=O)c1ccc2ccc(N3CCN(CC4CC4)CC3)n2c1`, 24.5%.
Regarding `O=C1NCCN1C1CCN(c2ccnc(-c3ccccc3)n2)CC1`, the cytotoxicity at 70.5 h was -7.99%.
For the compound `CCN(Cc1ccc2c(c1)OCO2)c1ncc(S(N)(=O)=O)s1`, the cytotoxicity at 70.5 h is 1.59%.
`OCC1CCCN1c1cc(NCc2ccsc2)ncn1` (stereo not drawn): the cytotoxicity at 70.5 h stood at 1.84%.
As for `COc1ccc(CNc2nc(C3CC3)no2)cc1OC`, the cytotoxicity at 70.5 h was -1.13%.
`CCc1ccc(CNC(=O)CCNc2ncccn2)s1`: the cytotoxicity at 70.5 h was -13.5%.
Turning to `Cc1nn(C)c2nc(N3CCN(Cc4nccn4C)CC3)sc12`, the cytotoxicity at 70.5 h is -8.28%.
To `CCn1nc(CC(C)C)cc1C(=O)N1CC(N2CCCCC2C)C1` (stereo not drawn) belongs -2.38%; to `CCc1cc(N(C)CCC(O)c2ccccc2)n2nccc2n1` (stereo not drawn), 30.6%.
To `O=C(CCCN1CCCCC1)NC(C(=O)O)c1cccc(F)c1` (stereo not drawn) belongs -6.49%; to `Cc1cccc(C(=O)N2CCN(CCOC(C)C)CC2)n1`, -6.81%; to `COCc1ccc(C(=O)N2CCN(CC3CC3)[C@@H]3CS(=O)(=O)C[C@@H]32)o1`, -1.28%.
`CC(C)CC(=O)N1CC[C@H]2C[C@H](c3nccs3)O[C@@H]2C1`: the cytotoxicity at 70.5 h is 2.63%.
In the case of `CCN1CCC2(CN(C(C)=O)CC23CCN(C(=O)N(C)C)CC3)C1=O` (stereo not drawn), the cytotoxicity at 70.5 h was -9.48%.
With `Cc1nccn1C1CCCN(C(=O)c2sccc2-n2cnnn2)C1` (stereo not drawn), the cytotoxicity at 70.5 h is -8.22%.
With `Cc1ccsc1C(=O)N1CC[C@@H](N(C)C)[C@@H]1Cc1cnn(C)c1` the figure was -11.2%.
With `Cc1nc(N)cc(C2CCN2CCC(N)=O)n1` (stereo not drawn), the cytotoxicity at 70.5 h is -3.73%.
As to `CCc1cc(N2CCN(c3ccc(Cl)cn3)CC2)n2nccc2n1`, the cytotoxicity at 70.5 h is -1.55%.
Turning to `OC1(CN2CCCC2)CCCN(Cc2cnc(-c3ccco3)nc2)C1` (stereo not drawn), the cytotoxicity at 70.5 h worked out at 2.98%.
Turning to `Cc1cc(C(=O)N2CCC[C@]3(C[C@@H](OCC4CC4)CO3)C2)no1`, the cytotoxicity at 70.5 h was -11.6%.
In the case of `Cn1c(C2CCCN2C(=O)CN2CCCC2=O)nc2ccccc21` (stereo not drawn), the cytotoxicity at 70.5 h was -3.63%.
Consider `O=C(CCc1nc2ccccc2[nH]1)N1CCCC(n2cccn2)C1` (stereo not drawn), for which the cytotoxicity at 70.5 h is 2.61%.
For `Cc1cccc(CN2C[C@@H]3OCCN(C)[C@@H]3C2)n1`, the cytotoxicity at 70.5 h is -11.9%.
To `O=C(CC1CCc2ccccc21)NC1(C(=O)O)CCOCC1` (stereo not drawn) belongs -14%; to `CCN(Cc1cnn(C)c1)C[C@H]1CC[C@@H](Cc2ccc(C)nc2)O1`, -16.5%; to `CCN1CC[C@@H]2OC[C@H](C(=O)NCc3cccs3)C[C@@H]2C1`, 45.7%.
Consider `O=S(=O)(Cc1c(F)cccc1Cl)NCCCN1CCCCCC1`, for which the cytotoxicity at 70.5 h was -1.18%.
`Cn1cc(CN2CCCN(C(=O)c3ccc4c(c3)COC4)CC2)cn1`: the cytotoxicity at 70.5 h was -4.36%.
On to `Cc1csc(NC(=O)c2cccnc2N2CCOCC2)n1`, for which the cytotoxicity at 70.5 h was found to be 18.7%.
`O=C(CNC(=O)c1c(F)cccc1Cl)Nc1ccc(F)cn1`: the cytotoxicity at 70.5 h is -12.6%.
In the case of `CN1CC(=O)N(c2cccc(F)c2)CC12CCNC2` (stereo not drawn), the cytotoxicity at 70.5 h was 1.26%.
For the compound `COC1CCCN(CCCc2cn[nH]c2)C1` (stereo not drawn), the cytotoxicity at 70.5 h amounted to 0.195%.
In the case of `CC(C)N(C)C[C@H]1OC[C@@H]2CCN(Cc3cccc(C#N)c3)C[C@@H]21`, the cytotoxicity at 70.5 h stood at 14.2%.
To `O=C(c1cccnc1O)N1CCOC(c2ccc(Cl)cc2)C1` (stereo not drawn) belongs -0.483%; to `Cc1noc(CN(Cc2ccc3c(c2)OCCO3)Cc2ccco2)n1`, -3.69%; to `Cc1cc(C(=O)NC2(C#N)CCCC2)c(C)n1-c1cccnc1`, -6.05%.
Turning to `CC(C)c1nc(C(=O)NCCn2ccnc2)nn1-c1cccc(F)c1`, the cytotoxicity at 70.5 h is -14.8%.
In the case of `O=C(Cc1ccccc1)N1CCN(Cc2noc(C3CC3)n2)CC1`, the cytotoxicity at 70.5 h was -1.85%.
Consider `Cc1cccc(NC(=O)C2CC(=O)n3cnnc3S2)c1` (stereo not drawn), for which the cytotoxicity at 70.5 h is -0.584%.
With `CCCS(=O)(=O)N1CCN(c2ccnc(N3CCCCC3)n2)CC1`, the cytotoxicity at 70.5 h is -8.56%.
To `CN1Cc2ccccc2CC1C(=O)N1CCN(CCS(C)(=O)=O)CC1` (stereo not drawn) belongs 5.5%; to `COc1ccc2cc(NC(=O)CCCNc3ncccn3)cnc2c1`, -30.3%.
With `COCc1nc(C(=O)N2CCCC(n3cccn3)C2)cs1` (stereo not drawn) the figure was -13.4%; with `CC(NCC1CCN(CCO)CC1)c1cccc(Cl)c1` (stereo not drawn), -2.07%.
Consider `Cc1ccc(-c2nnc(CN3CCCC(O)(CO)CC3)o2)n1C` (stereo not drawn), for which the cytotoxicity at 70.5 h was 14.8%.
To `Cc1cc(NS(=O)(=O)CC2CCCCO2)ccc1F` (stereo not drawn) belongs -2.48%.
On to `c1cncc(-c2ncnc3c2CCN(Cc2ccsc2)CC3)c1`, for which the cytotoxicity at 70.5 h was determined as 19.2%.
On to `Cc1nccn1C1CCCN(C(=O)c2ccc3c(c2)NC(=O)CO3)C1` (stereo not drawn), for which the cytotoxicity at 70.5 h is -5.24%.
In the case of `O=S(=O)(C1CC1)N1CCCn2cnc(COc3cccnc3)c2C1`, the cytotoxicity at 70.5 h was -2.62%.
To `Cc1c(C(C)NC(=O)Nc2ccc(F)cc2F)cnn1C` (stereo not drawn) belongs -3.54%; to `CCc1ccc(NC(=O)C2CCN(C(=O)COC)CC2)cc1`, -9.16%.
For the compound `CC(C)(C)c1ncc(CNc2ccn(CCc3ccncc3)n2)s1`, the cytotoxicity at 70.5 h is -10.2%.
